From ChEMBL document CHEMBL1201862, “PubChem BioAssay data set” (2004)
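These data come from cells grown in 96-well plates and exposed to compound for 48 hours at five concentrations. Here, GI50 denotes the concentration required for 50% inhibition of growth.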 The source made the active and inactive calls. Rule as the data show it: active = GI50 up to about 1.1 µM and inactive = higher. Where a SMILES comes first, the peptide text is derived from it. Square brackets hold non-standard residues; d marks the D form. Peptide text beside a SMILES is read from it.

Experiments:
Assay in all cases: NCI-60 cell line screen, 48 h
DLD-1 = tested on: DLD-1
DMS-114 = tested on: DMS-114
DMS-273 = tested on: DMS-273
HOP-18 = tested on: HOP-18
M19-MEL = tested on: M19-MEL
SNB-78 = tested on: SNB-78
XF498 = tested on: XF498
LXFL 529 = tested on: LXFL 529
RXF 631 = tested on: RXF 631

Compound	GI50 (DLD-1)	GI50 (DMS-114)	GI50 (DMS-273)	GI50 (HOP-18)	GI50 (M19-MEL)	GI50 (SNB-78)	GI50 (XF498)	GI50 (LXFL 529)	GI50 (RXF 631)
CCS(=O)(=O)Nc1ccc(Nc2c3ccccc3nc3ccccc23)c(OC)c1	2.56 µM (inactive)	0.216 µM (active)	0.0324 µM (active)	0.809 µM (active)	1.64 µM (inactive)	4.89 µM (inactive)	0.0223 µM (active)	–	–
C[n+]1ccc2[nH]c3ccccc3c2c1	> 100 µM (inactive)	–	> 100 µM (inactive)	> 45 µM (inactive)	> 100 µM (inactive)	> 100 µM (inactive)	–	> 100 µM (inactive)	–
COc1cccc(/C=C2\CCC(C)(CN(C)C)C2=O)c1 (stereo not drawn)	62.4 µM (inactive)	69.3 µM (inactive)	70.5 µM (inactive)	> 100 µM (inactive)	98.2 µM (inactive)	> 100 µM (inactive)	> 100 µM (inactive)	–	–
CCOc1ccccc1NC(=O)CC1Sc2ccccc2NC1=O (stereo not drawn)	75.7 µM (inactive)	–	48.6 µM (inactive)	53.2 µM (inactive)	64.4 µM (inactive)	> 100 µM (inactive)	80.4 µM (inactive)	59.2 µM (inactive)	58.5 µM (inactive)
CN1C(c2ccccc2)CC(=Nc2ccccc2)CC1c1ccccc1 (stereo not drawn)	10.6 µM (inactive)	–	8.79 µM (inactive)	–	4.58 µM (inactive)	15 µM (inactive)	–	4.46 µM (inactive)	20.5 µM (inactive)
Cc1cc(Cl)ccc1NC(=O)CC1SC(Nc2ccccc2Cl)=NC1=O (stereo not drawn)	28.1 µM (inactive)	21.1 µM (inactive)	26.4 µM (inactive)	> 100 µM (inactive)	38.9 µM (inactive)	49.5 µM (inactive)	62.1 µM (inactive)	34.9 µM (inactive)	45.6 µM (inactive)
CN(C)c1cccc(OC(=O)NCCCl)c1	> 100 µM (inactive)	> 100 µM (inactive)	> 100 µM (inactive)	> 100 µM (inactive)	> 100 µM (inactive)	–	> 100 µM (inactive)	–	–
Cc1cc(/N=N/c2ccc(/N=N/c3c(O)c(S(=O)(=O)O)cc4cc(S(=O)(=O)O)ccc34)cc2C)ccc1/N=N/c1ccc2cc(S(=O)(=O)O)cc(S(=O)(=O)O)c2c1	> 100 µM (inactive)	> 100 µM (inactive)	98.4 µM (inactive)	> 100 µM (inactive)	> 100 µM (inactive)	> 100 µM (inactive)	> 73.5 µM (inactive)	–	–
N#CNCC(COCc1ccccc1)c1ccccc1 (stereo not drawn)	–	53.2 µM (inactive)	94.4 µM (inactive)	> 100 µM (inactive)	> 100 µM (inactive)	–	47.6 µM (inactive)	–	> 100 µM (inactive)
O=C(CCN(C(=O)O)S(=O)(=O)c1ccc(NC(=O)c2ccccc2)cc1)Nc1ccccc1	> 79.8 µM (inactive)	> 56 µM (inactive)	> 65.3 µM (inactive)	> 17.1 µM (inactive)	> 76.9 µM (inactive)	> 100 µM (inactive)	> 100 µM (inactive)	> 100 µM (inactive)	> 100 µM (inactive)
CC1=NN2C(c3ccc([N+](=O)[O-])cc3)=CSC2=NC(C)(C)C1	> 100 µM (inactive)	67.8 µM (inactive)	> 100 µM (inactive)	> 100 µM (inactive)	> 100 µM (inactive)	> 100 µM (inactive)	> 100 µM (inactive)	> 100 µM (inactive)	> 100 µM (inactive)
O=C(CCN1CCOCC1)C(=Cc1ccccc1)C(=O)CCN1CCOCC1	1.82 µM (inactive)	–	8.65 µM (inactive)	16.8 µM (inactive)	2.83 µM (inactive)	0.164 µM (active)	4.29 µM (inactive)	–	–
CCc1ccccc1NC(=O)C1=C(C)NC(C)=C(C(=O)Nc2ccccc2CC)C1c1ccccc1Cl	> 100 µM (inactive)	> 100 µM (inactive)	–	–	> 100 µM (inactive)	> 100 µM (inactive)	0.152 µM (active)	> 100 µM (inactive)	–
CN(/N=N/c1[nH]cnc1C(N)=O)C1CCCCC1	> 100 µM (inactive)	> 100 µM (inactive)	41.2 µM (inactive)	–	> 100 µM (inactive)	> 100 µM (inactive)	75.7 µM (inactive)	> 100 µM (inactive)	–
CCOC(=O)C(Sc1ccccc1)c1c(OC)cc(=O)oc1/C=[N+](/[O-])c1ccc(N(C)C)cc1 (stereo not drawn)	28.1 µM (inactive)	19.4 µM (inactive)	14 µM (inactive)	17.1 µM (inactive)	19.8 µM (inactive)	27.1 µM (inactive)	14.6 µM (inactive)	14.1 µM (inactive)	–
C=C1CCC2C(C)(CO)C(O)CCC2(C)C1CC(O)/C(=C/CO)C(=O)O (stereo not drawn)	> 100 µM (inactive)	> 100 µM (inactive)	> 100 µM (inactive)	> 100 µM (inactive)	> 100 µM (inactive)	> 100 µM (inactive)	–	> 100 µM (inactive)	> 100 µM (inactive)
NC(=O)c1ncn(CCN2CCN(C(=O)NCCCCCCNC(=O)N3CCN(CCn4cnc(C(N)=O)c4N)CC3)CC2)c1N	> 100 µM (inactive)	–	> 100 µM (inactive)	> 100 µM (inactive)	–	> 100 µM (inactive)	> 100 µM (inactive)	> 100 µM (inactive)	> 100 µM (inactive)
CC1=C(C(=O)Nc2ccccc2)C(c2ccccc2Cl)C(C(=O)Nc2ccccc2)=C(C)N1	35.9 µM (inactive)	–	20.8 µM (inactive)	21.9 µM (inactive)	19.8 µM (inactive)	–	–	17.6 µM (inactive)	36.1 µM (inactive)
CC(C)Cc1ccc(C(C)/C=C2\CCC(CN3CCOCC3)C2=O)cc1 (stereo not drawn)	2.71 µM (inactive)	13.4 µM (inactive)	–	7.87 µM (inactive)	10.2 µM (inactive)	20.9 µM (inactive)	16.4 µM (inactive)	1.64 µM (inactive)	18.1 µM (inactive)
Cc1nc2c(=O)n(C)c(=O)nc-2n(-c2ccc(Cl)cc2)c1C	85.9 µM (inactive)	> 100 µM (inactive)	> 100 µM (inactive)	> 100 µM (inactive)	> 100 µM (inactive)	> 100 µM (inactive)	> 100 µM (inactive)	62.7 µM (inactive)	> 100 µM (inactive)
O=C(Nc1ccccc1-c1nn(CN2CCNCC2)c(=S)n(CN2CCNCC2)c1=O)C(F)(F)F	16.5 µM (inactive)	19.1 µM (inactive)	18.1 µM (inactive)	18.2 µM (inactive)	17.9 µM (inactive)	23 µM (inactive)	–	–	20.7 µM (inactive)
COC(=O)N/N=C(\C)c1sc(-c2nc(C)c(/C(C)=N/NC(=O)OC)s2)nc1C	> 100 µM (inactive)	42.2 µM (inactive)	95.9 µM (inactive)	> 100 µM (inactive)	> 100 µM (inactive)	62.7 µM (inactive)	–	> 100 µM (inactive)	> 100 µM (inactive)
COc1ccc(C(N)=O)c(OC)c1OCc1ccccc1	> 100 µM (inactive)	> 100 µM (inactive)	> 100 µM (inactive)	–	> 100 µM (inactive)	> 100 µM (inactive)	–	> 100 µM (inactive)	–
O=C(O)c1cc2c(ncc3c(=O)n(-c4ccccc4)[nH]c32)s1	> 100 µM (inactive)	> 100 µM (inactive)	> 100 µM (inactive)	> 100 µM (inactive)	> 100 µM (inactive)	–	> 100 µM (inactive)	> 100 µM (inactive)	–
C[Si](C)(C)[C@@]1([Se]c2ccccc2)CC[C@@H]1C(=O)c1ccccc1	77.4 µM (inactive)	38.5 µM (inactive)	59.3 µM (inactive)	–	32.5 µM (inactive)	> 100 µM (inactive)	–	65.6 µM (inactive)	> 100 µM (inactive)
CC(C)C[C@H](NC(=O)[C@H](CC(C)C)NC(=O)[C@@H](Cc1c[nH]c2ccccc12)NC(=O)[C@H](Cc1ccccc1)NC(=O)[C@@H](Cc1c[nH]c2ccccc12)NC(=O)[C@H](CCC(N)=O)NC(=O)[C@@H](CCC(N)=O)NC(=O)[C@@H]1CCCN1C(=O)[C@@H](CCCCN)NC(=O)[C@H]1CCCN1C(=O)[C@H](N)CCCN=C(N)N)C(N)=O (H-[dR][dP][dK]P[dQ]Q[dW]F[dW]LL-NH2)	> 100 µM (inactive)	> 100 µM (inactive)	> 100 µM (inactive)	> 100 µM (inactive)	> 100 µM (inactive)	> 100 µM (inactive)	> 100 µM (inactive)	–	–
CC1NC(=O)CNC(=O)CNC(=O)C(Cc2ccc(O)cc2)NC(=O)C(C(C)C)NC(=O)C(C)NC1=O (stereo not drawn) (cyclo(GGAAVY); configuration not given here)	> 100 µM (inactive)	> 100 µM (inactive)	> 100 µM (inactive)	30.1 µM (inactive)	> 100 µM (inactive)	–	> 100 µM (inactive)	–	–
